# Reference: PubChem BioAssay (NCI)
#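 Step 1: Grow cells in 96-well plates. Step 2: Expose to compound for 48 hours at 5 concentrations. Step 3: Interpolate endpoints linearly; if unreached, use highest concentration. At the GI50, growth is halved. Definition used: TGI = concentration required for complete inhibition of growth.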
# How the values were obtained:
# Test in all cases: DTP human tumour cell line panel, 48 h
# DU-145 prostate = tested on: DU-145 prostate
# RPMI-8226 leukemia = tested on: RPMI-8226 leukemia
# SF-295 CNS = tested on: SF-295 CNS
# LOX IMVI melanoma = tested on: LOX IMVI melanoma
# COLO 205 colon = tested on: COLO 205 colon
# HL-60(TB) leukemia = tested on: HL-60(TB) leukemia
# OVCAR-4 ovarian = tested on: OVCAR-4 ovarian
# KM12 colon = tested on: KM12 colon
# CAKI-1 renal = tested on: CAKI-1 renal
# UO-31 renal = tested on: UO-31 renal
# MOLT-4 leukemia = tested on: MOLT-4 leukemia
# PC-3 prostate = tested on: PC-3 prostate
# A549 NSCLC = tested on: A549 NSCLC
# IGROV1 ovarian = tested on: IGROV1 ovarian
# SW-620 colon = tested on: SW-620 colon
# SK-OV-3 ovarian = tested on: SK-OV-3 ovarian
# SK-MEL-5 melanoma = tested on: SK-MEL-5 melanoma
# ACHN renal = tested on: ACHN renal
# 786-0 renal = tested on: 786-0 renal
# CCRF-CEM leukemia = tested on: CCRF-CEM leukemia
# HS 578T breast = tested on: HS 578T breast
# U251 CNS = tested on: U251 CNS
# HOP-92 NSCLC = tested on: HOP-92 NSCLC
# UACC-62 melanoma = tested on: UACC-62 melanoma
# MDA-MB-231 breast = tested on: MDA-MB-231 breast
# OVCAR-3 ovarian = tested on: OVCAR-3 ovarian
# HCT-15 colon = tested on: HCT-15 colon
# SF-268 CNS = tested on: SF-268 CNS
# OVCAR-5 ovarian = tested on: OVCAR-5 ovarian
# HCT-116 colon = tested on: HCT-116 colon
# HCC-2998 colon = tested on: HCC-2998 colon
# M14 melanoma = tested on: M14 melanoma
# HOP-62 NSCLC = tested on: HOP-62 NSCLC
# RXF 393 renal = tested on: RXF 393 renal
# NCI-H23 lung = tested on: NCI-H23 lung
# SR leukemia = tested on: SR leukemia
# MCF7 breast = tested on: MCF7 breast
# OVCAR-8 ovarian = tested on: OVCAR-8 ovarian
# EKVX NSCLC = tested on: EKVX NSCLC
# NCI-H522 lung = tested on: NCI-H522 lung
# SN12C renal = tested on: SN12C renal
# TK-10 renal = tested on: TK-10 renal
# NCI-H226 lung = tested on: NCI-H226 lung
# NCI/ADR-RES ovarian = tested on: NCI/ADR-RES ovarian
# SK-MEL-28 melanoma = tested on: SK-MEL-28 melanoma
# UACC-257 melanoma = tested on: UACC-257 melanoma
# NCI-H460 lung = tested on: NCI-H460 lung
# SK-MEL-2 melanoma = tested on: SK-MEL-2 melanoma
# SF-539 CNS = tested on: SF-539 CNS
# BT-549 breast = tested on: BT-549 breast
# K-562 leukemia = tested on: K-562 leukemia
# A498 renal = tested on: A498 renal
# SNB-19 CNS = tested on: SNB-19 CNS
compound,measurement,setting,value
ClCc1ccc(-c2ccc(Cn3cnc4c(Cl)ncnc43)cc2)cc1,GI50,DU-145 prostate,1.49 µM
same,TGI,DU-145 prostate,3.36 µM
same,GI50,RPMI-8226 leukemia,2.05 µM
same,TGI,RPMI-8226 leukemia,4.87 µM
same,GI50,SF-295 CNS,1.92 µM
same,TGI,SF-295 CNS,4.89 µM
same,GI50,LOX IMVI melanoma,1.33 µM
same,TGI,LOX IMVI melanoma,3.01 µM
same,GI50,COLO 205 colon,1.82 µM
same,TGI,COLO 205 colon,4.27 µM
same,GI50,HL-60(TB) leukemia,2.18 µM
same,TGI,HL-60(TB) leukemia,5.59 µM
same,GI50,OVCAR-4 ovarian,1.46 µM
same,TGI,OVCAR-4 ovarian,4.28 µM
same,GI50,KM12 colon,1.59 µM
same,TGI,KM12 colon,3.56 µM
same,GI50,CAKI-1 renal,1.47 µM
same,TGI,CAKI-1 renal,2.87 µM
same,GI50,UO-31 renal,2.29 µM
same,TGI,UO-31 renal,5.21 µM
same,GI50,MOLT-4 leukemia,1.79 µM
same,TGI,MOLT-4 leukemia,> 100 µM
same,GI50,PC-3 prostate,2.8 µM
same,TGI,PC-3 prostate,9.92 µM
same,GI50,A549 NSCLC,4.31 µM
same,TGI,A549 NSCLC,17.4 µM
same,GI50,IGROV1 ovarian,3.59 µM
same,TGI,IGROV1 ovarian,57.2 µM
same,GI50,SW-620 colon,2.43 µM
same,TGI,SW-620 colon,6.63 µM
same,GI50,SK-OV-3 ovarian,1.98 µM
same,TGI,SK-OV-3 ovarian,6.14 µM
same,GI50,SK-MEL-5 melanoma,2.49 µM
same,TGI,SK-MEL-5 melanoma,7.17 µM
same,GI50,ACHN renal,1.5 µM
same,TGI,ACHN renal,2.89 µM
same,GI50,786-0 renal,1.62 µM
same,TGI,786-0 renal,2.97 µM
same,GI50,CCRF-CEM leukemia,2.58 µM
same,TGI,CCRF-CEM leukemia,> 100 µM
same,GI50,HS 578T breast,3.06 µM
same,TGI,HS 578T breast,> 100 µM
same,GI50,U251 CNS,1.81 µM
same,TGI,U251 CNS,3.95 µM
same,GI50,HOP-92 NSCLC,2.02 µM
same,TGI,HOP-92 NSCLC,25.2 µM
same,GI50,UACC-62 melanoma,1.58 µM
same,TGI,UACC-62 melanoma,3.44 µM
same,GI50,MDA-MB-231 breast,1.77 µM
same,TGI,MDA-MB-231 breast,3.73 µM
same,GI50,OVCAR-3 ovarian,1.83 µM
same,TGI,OVCAR-3 ovarian,3.8 µM
same,GI50,HCT-15 colon,1.9 µM
same,TGI,HCT-15 colon,4.47 µM
same,GI50,SF-268 CNS,1.13 µM
same,TGI,SF-268 CNS,3.51 µM
same,GI50,OVCAR-5 ovarian,2.31 µM
same,TGI,OVCAR-5 ovarian,6.01 µM
same,GI50,HCT-116 colon,1.48 µM
same,TGI,HCT-116 colon,2.79 µM
same,GI50,HCC-2998 colon,1.44 µM
same,TGI,HCC-2998 colon,2.89 µM
same,GI50,M14 melanoma,2.69 µM
same,TGI,M14 melanoma,11.8 µM
same,GI50,HOP-62 NSCLC,1.84 µM
same,TGI,HOP-62 NSCLC,3.63 µM
same,GI50,RXF 393 renal,1.88 µM
same,TGI,RXF 393 renal,4.51 µM
same,GI50,NCI-H23 lung,1.84 µM
same,TGI,NCI-H23 lung,3.65 µM
same,GI50,SR leukemia,2.51 µM
same,TGI,SR leukemia,> 100 µM
same,GI50,MCF7 breast,1.1 µM
same,TGI,MCF7 breast,12.4 µM
same,GI50,OVCAR-8 ovarian,2.8 µM
same,TGI,OVCAR-8 ovarian,8.95 µM
same,GI50,EKVX NSCLC,2.98 µM
same,TGI,EKVX NSCLC,12.9 µM
same,GI50,NCI-H522 lung,4.01 µM
same,TGI,NCI-H522 lung,> 100 µM
same,GI50,SN12C renal,1.64 µM
same,TGI,SN12C renal,3.69 µM
same,GI50,TK-10 renal,1.65 µM
same,TGI,TK-10 renal,3.58 µM
same,GI50,NCI-H226 lung,1.81 µM
same,TGI,NCI-H226 lung,3.89 µM
same,GI50,NCI/ADR-RES ovarian,2.16 µM
same,TGI,NCI/ADR-RES ovarian,4.7 µM
same,GI50,SK-MEL-28 melanoma,2.49 µM
same,TGI,SK-MEL-28 melanoma,7.79 µM
same,GI50,UACC-257 melanoma,3.76 µM
same,TGI,UACC-257 melanoma,24.7 µM
same,GI50,NCI-H460 lung,0.486 µM
same,TGI,NCI-H460 lung,2.65 µM
same,GI50,SK-MEL-2 melanoma,3.7 µM
same,TGI,SK-MEL-2 melanoma,> 100 µM
same,GI50,SF-539 CNS,1.52 µM
same,TGI,SF-539 CNS,3.14 µM
same,GI50,BT-549 breast,3.11 µM
same,TGI,BT-549 breast,> 100 µM
same,GI50,K-562 leukemia,2.9 µM
same,TGI,K-562 leukemia,> 100 µM
same,GI50,A498 renal,20.5 µM
same,TGI,A498 renal,37 µM
same,GI50,SNB-19 CNS,2.59 µM
same,TGI,SNB-19 CNS,8.1 µM
